Measured values from patent US20120115778A1, “Methods of Suppressing Appetite by the Administration of Antagonists of the Serotonin HTR1a or HTR2b Receptors or Inhibitors of TPH2” (The Trustees of Columbia University in the City of New York, priority 2009, published 2012).

Experiments:
[1] = Appetite in Htr1aPomc-/- mice treated with LY426965; format: in vivo
Experimental: These two hypotheses were tested through the use of a small molecule that selectively antagonizes signaling through Htr1a receptor. Other Htr1a and 2b receptor antagonists for use in the present invention are discussed below.
Animals were housed under 12 h light/12 h dark conditions with ad libitum access to food and water, and were used after a minimum of 4 days of acclimatization to the housing conditions. Control, Htr1aPomc−/−, Htr2bPomc−/−, Htr1a; 2 bPomc−/−, CrebPomc−/− mice were separated into individual cages one day prior to the experiment. Food intake and energy expenditure was measured every 12 hours for 36 hours essentially as described previously (6, 17).

[2] = Acute dose response of LY426965 on food intake in WT mice; format: in vivo
Experimental: (§1) This decrease in food intake reached 77% of control values when using 20 mg/kg of the compound (FIG. 19 C). […] Thus LY426965 decreases appetite in WT mice by inhibiting serotonin signaling through the Htr1a receptor that is located in the hypothalamus.
(§2) One or 3-month old C57B1/6J inbred female mice were used in these experiments. Two different experimental regimens were utilized to assess the effect of LY426965 on appetite in WT and ob/ob mice.
Animals were separated into individual cages one day prior to the experiment. Compound LY426965 was dissolved in water and fed orally (Gavage) according to the weight of the mouse at doses 1, 5, 10 and 20 mg/kg BW two hours prior to the commencement of the dark cycle. Control animals received the same volume of vehicle. Food intake was measured every 12 hours for 36 hours after giving one dose of the antagonist.

[3] = Mass spectrometric analysis of mice hypothalami after administration of the compound; format: in vivo
Experimental: as §1

[4] = Food intake in leptin-deficient ob/ob mice after a single dose of LY426965; format: in vivo; conditions: 4-week old ob/ob mice, single dose 0.2 mg/20 g of body weight, 12, 24 and 36 h later
Experimental: (§3) To determine whether LY426965 could decrease appetite in leptin-deficient ob/ob mice, we administered 4-week old ob/ob mice with a single dose of LY426965 (0.2 mg/20 g of body weight) and measured food intake 12, 24 and 36 h later. […] Experiments were conducted to determine whether LY426965 could rescue, at least in part, the obesity of ob/ob mice if administered chronically, once mice had already developed an obesity phenotype. 4-week old ob/ob mice were administered daily with 20 mg/kg body weight dose of LY426965 for 4 additional weeks.
as §2

[5] = Chronic treatment of ob/ob mice with LY426965; format: in vivo; conditions: 20 mg/kg body weight daily for 4 weeks from 4 weeks of age
Experimental: as §3
In this experiment one-month old WT and ob/ob mice (housed individually in metabolic cages) were divided into different groups and injected with the LY426965 dissolved in water and diluted in saline (final concentration 0.9%) once a day, 2 hours prior to the commencement of the dark cycle, for 4 weeks. Body weight was recorded everyday and dose of the drug and vehicle adjusted accordingly. At the end of the experiment all mice were subjected to measurement of food intake every 12 hours over a period of 36 hours.

[6] = biological target: T1, Htr1a receptor (Homo sapiens, UniProt P08908); conditions: cited from earlier work
T1 sequence (P08908 1-422): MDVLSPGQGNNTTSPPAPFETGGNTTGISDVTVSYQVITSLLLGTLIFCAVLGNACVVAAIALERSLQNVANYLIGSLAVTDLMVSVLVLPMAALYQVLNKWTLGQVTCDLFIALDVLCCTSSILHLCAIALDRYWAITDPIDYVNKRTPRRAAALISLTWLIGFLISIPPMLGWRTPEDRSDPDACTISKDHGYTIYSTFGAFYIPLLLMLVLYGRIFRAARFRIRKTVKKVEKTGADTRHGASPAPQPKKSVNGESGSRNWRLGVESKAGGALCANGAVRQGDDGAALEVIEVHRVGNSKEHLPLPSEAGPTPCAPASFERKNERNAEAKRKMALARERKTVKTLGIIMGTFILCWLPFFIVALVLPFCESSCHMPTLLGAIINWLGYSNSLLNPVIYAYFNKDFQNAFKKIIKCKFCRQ

**Q.** Which appetite [1] does the source give for `COc1ccccc1N1CCN(CC[C@](C)(C(=O)C2CCCCC2)c2ccccc2)CC1` [LY426965] here?
**A.** The appetite was “not decreased”.

**Q.** What about the “decrease in food intake” value ([2]; 20 mg/kg, WT mice) of the same compound?
**A.** The value was 77 % of control values.

**Q.** What about the “appetite (dose response)” value ([2]; 1 to 20 mg/kg of body weight fed to 12 week-old C57B16/J mice) of the same compound?
**A.** Its value is “dose-dependent decrease in appetite”.

**Q.** What about the “compound reaching the hypothalamus” value [3] of the same compound?
**A.** Its value is “could reach the hypothalamus”.

**Q.** And the “food intake lower than in vehicle-treated mice” value [4]?
**A.** Its value is 20-25%.

**Q.** What about the obesity phenotype [5] of the same compound?
**A.** Its obesity phenotype is “significantly decreased the obesity phenotype”.

**Q.** What about the “selectivity over other serotonin and non-serotonin receptor subtypes” value [6] of the same compound?
**A.** The value was ≥ 20 fold.

**Q.** And the Ki ([6]; read-out: affinity for the Htr1a receptor (Ki))?
**A.** Its Ki is 4.66 nM.
